Test results: BindingDB's records for doi:10.1021/jm00179a007 (1980)

Assay: In vitro inhibitory potency was measured against phenylethanolamine N-methyl-transferase

NCc1cccc(Cl)c1 [(3-chlorophenyl)methanamine]
IC50: 9 µM

CC(N)Cc1ccc(Cl)cc1 (configuration not stated) [para-chloroamphetamine]
IC50: 300 µM
